From patent US9427439B1, “Methods and compositions for recovery from stroke” (EIP Pharma, LLC, priority 2015, dated 2016)

Assays:
[1] = brain distribution in pre-clinical studies; type: in vivo
Source text: The inhibition of MAPK by VX-745 blocks the downstream synthesis of inflammatory cytokines TNF-α and IL-1β. […] VX-745 preferentially distributes to the brain with drug concentrations in the brain in pre-clinical studies being approximately two-fold higher than in the blood. Stroke

[2] = test system: rat model of stroke (transient MCAO); experiment: tMCAO rat stroke model: body swing test; type: in vivo
Experimental: (§1) Group 1M: 20 tMCAO animals treated twice-a-day with vehicle from Day 3 (day 1 being day of stroke surgery) to Day 42 (via PO gavage)
(§2) Group 2M: 22 tMCAO animals treated twice-a-day with VX-745 (1.5 mg/kg) from Day 3 (day 1 being day of stroke surgery) to Day 42 (via PO gavage)
(§3) Group 3M: 21 tMCAO animals treated twice-a-day with VX-745 (4.5 mg/kg) from Day 3 (day 1 being day of stroke surgery) to Day 42 (via PO gavage)
(§4) Transient middle cerebral artery occlusion was performed according to the method described in R. Schmid-Elsaesser et al., Stroke, 29(10):2162-2170 (1998). The right Common Carotid Artery (CCA) was exposed through a midline neck incision and carefully dissected free from surrounding nerves and fascia—from its bifurcation to the base of the skull. The occipital artery branches of the ECA (External Carotid Artery) were then isolated, and these branches were dissected and coagulated. […]
The rat was held approximately one inch from the base of its tail. […] A swing was recorded whenever the rat moved its head out of the vertical axis to either side. Before attempting another swing, the rat had must return to the vertical position for the next swing to be counted. Twenty (20) total swings were counted. […] Body swing scores were expressed as a percentage of rightward over total swings. […]

[3] = test system: cytokine production (TNF-α and IL-1β) in whole blood; conditions: inhibition of cytokine production (anti-inflammatory activity); cited from earlier work
[4] = test system: IL-1β production and signaling; conditions: cited from earlier work
cytokine signaling = conditions: cited from earlier work
[5] = test system: rat model of stroke (transient MCAO); experiment: tMCAO rat stroke model: Neuroscore (mNSS); type: in vivo; conditions: Groups 2M (1.5 mg/kg) and 3M (4.5 mg/kg), PO twice a day from Day 3 to Day 42
Experimental: as §1, §2, §3
as §4, with “coagulated. The ECA was dissected further distally and coagulated along with the terminal lingual and maxillary artery branches, which was then divided. The ICA (Internal Carotid Artery) was isolated and carefully separated from the adjacent vagus nerve, and the pterygopalatine artery was ligated close to its origin with a 5-0 nylon suture (SMI, Belgium).” for “coagulated.”

[6] = test system: rat model of stroke (transient MCAO); experiment: tMCAO rat stroke model: stepping test; type: in vivo; conditions: Groups 2M (1.5 mg/kg) and 3M (4.5 mg/kg), PO twice a day; Week 4 up to Week 6
Experimental: as §1, §2, §3, §4
Animals were tested for forelimb akinesia in a stepping test (ST). The animal was held with its hind limbs fixed in one hand and the forelimb, not to be monitored, in the other, while the unrestrained fore-paw touches the table. The number of adjusting steps were counted while the animal was moved sideways along the table surface (85 cm during approximately five seconds), in the forehand & backhand direction for both forelimbs. […]

[7] = test system: rat model of stroke (transient MCAO); experiment: tMCAO rat stroke model: forelimb placement test; type: in vivo; conditions: Groups 2M (1.5 mg/kg) and 3M (4.5 mg/kg), PO twice a day; Week 4 and Week 6
Experimental: as §1, §2, §3
as §4, with “coagulated. The ECA was dissected further distally and coagulated along with the terminal lingual and maxillary artery branches, which was then divided. The ICA (Internal Carotid Artery) was isolated and carefully separated from the adjacent vagus nerve, and the pterygopalatine artery was ligated close to its origin with a 5-0 nylon suture (SMI, Belgium).” for “coagulated.”

IL-1β = IL-1β ELISA of brain at termination of tMCAO study; type: in vivo, rat; conditions: right minus left hemisphere; Groups 2M and 3M versus 1M; n=18 per group
Source text: The brains of all animals were harvested on Day 44. Rats were sacrificed by CO2 inhalation. Brains were harvested from all animals in each group, divided to left and right hemisphere, weighed, and snap frozen.
Brains were harvested at study termination. Each brain was dissected into two hemispheres and each hemisphere was weighed and enclosed into tubes marked Left or Right. Each tube was immediately frozen in liquid nitrogen and stored at (−80)° C. The tissues were defrosted and homogenized in 1 ml/200 mg tissue of 20 mM Tris-HCL pH 7.4 containing a protease inhibitor cocktail (50 μl/ml). Samples were centrifuged at 10,000 g for 15 min at 4°. Clear supernatants were aliquoted (150 μl/aliquot) and stored at (−80)° C. until ELISA assays were performed. ELISA assay was executed according to kit instructions. Standards and samples were tested in duplicates.
Following study termination, animals were also tested for IL-1β brain levels using the ELISA system (see FIG. 8 for standard curves). The variability of the results was too large to allow definitive conclusions. All the results below the Lower Limit of Quantification (LLOQ) were assigned the LLOQ value of 5 pg/ml. Then, results for the uninjured left side were subtracted from the results of the right side. The distribution for individual rats is given in the figure below (n=18 in each of the study groups) (FIG. 9).

[8] = treatment of rheumatoid arthritis; cited from earlier work
[9] = tMCAO study: body weight, clinical signs, mortality; type: in vivo, rat
Experimental: Altogether 76 adult male Sprague Dawley rats, purchased from Harlan Laboratories, (Israel), and weighing 300-350 g were used for the experiment. Animals were housed at a standard temperature (20-24° C.) and in a light-controlled environment (12 hours light/12 hours dark) with ad libitum access to food and water.
as §1, §2, §3
Animals were handled at a minimum for three days before the surgery. Baseline measures were taken before stroke was induced. Stroke surgery occurred on Day 1. On Day 2, 24 hours post-stroke surgery, Neuroscore testing was performed. Only animals reaching and exceeding Neuroscore criteria was included in the study. On Days 3-42, treatment with vehicle or VX-745 was administered twice a day for 40 days via PO (oral) gavage for all groups. Behavioral tests for all groups were conducted on weeks 4 and 6. Animals were sacrificed on Day 44 and brains were harvested.
Statistical analysis was performed when applicable by two-way ANOVA for repeated measures, followed by Bonferroni post-hoc tests for all the data presented in the results section (*p<0.05; **p<0.01; ***p<0.001).

animal models of stroke = conditions: administered 24-hours after stroke; cited from earlier work

## O=c1ncn2nc(Sc3ccc(F)cc3F)ccc2c1-c1c(Cl)cccc1Cl [VX-745]
[1]
  drug concentrations in the brain versus in the blood: approximately two-fold
[2]; Groups 2M (1.5 mg/kg) and 3M (4.5 mg/kg), PO twice a day
  body swing test (difference between left turn and right turn) versus vehicle control group 1M: statistically significant difference
[2]; particularly in the 4.5 mg/kg dose group
  body swing test, extent of recovery: near normalization
[3]
  whole blood IC50: 0.065 to 0.08 µg/mL
[4]
  IL-1β production and signaling in vitro: inhibits IL-1β production and signaling in vitro
Cytokine signaling
  IC50 for inhibition of cytokine signaling relative to IC50 for cytokine production: half that for cytokine production
[5]
  neuroscore delta (change from Day 2 to Week 4 or Week 6) versus vehicle control group 1M: statistically significant difference
[5]; Weeks 4 and 6
  absolute neuroscore versus vehicle control group 1M: statistically significant difference
[6]
  stepping test (left forelimb), number of steps versus vehicle control group 1M: statistically significant difference
[7]
  forelimb placement test score versus vehicle control group 1M: Statistically significant differences
IL-1β
  IL-1β levels in the brain at study termination, between the groups: No statistically significant differences
[8]
  mean blood concentration: approximately 75 ng/mL
[9]; all groups through the study, two-way ANOVA, Bonferroni
  body weight, differences between groups: No statistically significant differences
[9]; group 2M (1.5 mg/kg), within two weeks of treatment initiation
  rats that died after treatment initiation: one
[9]; tMCAO rats, 1.5 and 4.5 mg/kg PO twice a day
  general clinical signs, differences between groups: no observed differences

## C[S+]([O-])c1ccc(-c2nc(-c3ccc(F)cc3)c(-c3ccncc3)[nH]2)cc1 (stereo not shown) [SB203850]
Animal models of stroke
  effect on recovery from neurologic deficit: no significant effect
